Reference: patent US20050244490A1, “Dosing methods for beta-D-2',3'-dideoxy-2',3'-didehydro-5-fluorocytidine antiviral therapy” (priority 2003, published 2005)
Like-named read-outs stand apart in the source and are kept apart here. One block for each molecule: values may come before it.

Assays:
[1] = tested on: HIV viral load; conditions: cited from earlier work
[2] = tested on: HepG2 cells; assay: Mitochondrial toxicity testing (mitDNA, rRNA, lactic acid); type: cell-based; conditions: 14 days; for % Change in Lactic Acid: normalized for cytotoxicity
Experimental: HepG2 cells were incubated for 14 days with the active agent. and mitDNA and rRNA levels were determined by quantitative real-time PCR. The results are tabulated in […]

[3] = tested on: acutely HIV-1 infected human PBM cells; assay: Median effect / combination index study with Racivir; type: cell-based; conditions: Human immunodeficiency virus 1, PBMC, 120 h; Day 5; assays (1), (2), (3); read-out: EC90
[4] = tested on: HIV viral load; assay: Viral load decline on repeated dosing, β-D-D4FC and competing nucleosides; type: in vivo; conditions: 200 to 600 mg QD, duration of dosing 14; not monotherapy, in combination with EFV & D4T
[5] = molecular target: T1, wild type HIV-RT (Human immunodeficiency virus type 1 group M subtype B, UniProt P04585); assay: Ki / Km for wild type HIV-RT; type: biochemical, HIV-1
T1 construct: The Ki value for β-D-D4FC-TP for wild type HIV-RT

[6] = molecular target: M184V mutant RT (Human immunodeficiency virus type 1 group M subtype B, UniProt P04585, M771V); assay: biochemical; type: biochemical, HIV-1
[7] = molecular target: DNA Pol β (Homo sapiens, UniProt P06746); assay: Inhibition of pure DNA polymerase β by nucleoside triphosphates; type: biochemical; conditions: tritiated dCTP incorporation
Experimental: (§1) Triphosphates of nucleosides were tested against pure polymerases using tritiated dCTP incorporation.

[8] = molecular target: T2, DNA Pol γ (Homo sapiens, UniProt P54098); assay: Inhibition of pure DNA polymerase γ by nucleoside triphosphates; type: biochemical; conditions: tritiated dCTP incorporation
T2 sequence (P54098 1-1239): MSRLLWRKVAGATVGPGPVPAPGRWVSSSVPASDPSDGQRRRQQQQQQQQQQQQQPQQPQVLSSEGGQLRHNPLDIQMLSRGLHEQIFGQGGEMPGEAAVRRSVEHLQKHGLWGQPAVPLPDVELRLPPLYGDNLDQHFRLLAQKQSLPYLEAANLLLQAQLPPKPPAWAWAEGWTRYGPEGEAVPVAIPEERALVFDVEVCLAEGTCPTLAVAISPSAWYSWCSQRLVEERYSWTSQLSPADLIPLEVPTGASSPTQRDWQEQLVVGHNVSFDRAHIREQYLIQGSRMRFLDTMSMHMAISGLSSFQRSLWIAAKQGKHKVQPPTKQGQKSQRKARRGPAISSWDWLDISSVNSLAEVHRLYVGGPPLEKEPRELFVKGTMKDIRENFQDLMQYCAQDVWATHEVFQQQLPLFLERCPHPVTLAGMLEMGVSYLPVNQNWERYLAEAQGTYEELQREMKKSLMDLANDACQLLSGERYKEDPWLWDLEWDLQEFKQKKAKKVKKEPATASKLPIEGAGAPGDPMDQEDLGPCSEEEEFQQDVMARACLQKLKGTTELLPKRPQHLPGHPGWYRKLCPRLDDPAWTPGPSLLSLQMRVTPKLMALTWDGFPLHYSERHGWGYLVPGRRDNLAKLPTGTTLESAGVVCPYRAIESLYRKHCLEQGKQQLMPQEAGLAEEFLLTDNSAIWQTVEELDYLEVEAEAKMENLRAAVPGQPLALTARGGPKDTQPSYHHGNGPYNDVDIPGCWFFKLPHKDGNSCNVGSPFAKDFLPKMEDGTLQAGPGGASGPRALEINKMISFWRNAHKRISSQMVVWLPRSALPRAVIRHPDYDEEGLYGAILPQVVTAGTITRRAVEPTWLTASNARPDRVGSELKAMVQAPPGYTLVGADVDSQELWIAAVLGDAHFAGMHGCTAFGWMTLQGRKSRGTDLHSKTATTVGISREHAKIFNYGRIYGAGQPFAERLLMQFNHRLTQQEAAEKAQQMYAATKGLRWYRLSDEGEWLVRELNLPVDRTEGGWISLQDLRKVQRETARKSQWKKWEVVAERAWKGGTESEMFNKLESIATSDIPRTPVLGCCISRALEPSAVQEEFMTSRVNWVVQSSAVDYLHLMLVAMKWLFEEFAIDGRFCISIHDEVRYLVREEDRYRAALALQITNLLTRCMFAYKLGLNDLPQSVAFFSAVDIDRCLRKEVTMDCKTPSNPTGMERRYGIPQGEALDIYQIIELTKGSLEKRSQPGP
Experimental: as §1

[9] = molecular target: T3, HIV RT (Human immunodeficiency virus type 1 group M subtype B, UniProt P04585); assay: Inhibition of purified HIV-1 reverse transcriptase by nucleoside triphosphates (tritiated dCTP incorporation); type: biochemical
T3 construct: purified HIV-1 reverse transcriptase (RT)
Experimental: An assay was performed to determine the ability of β-D-D4FC-triphosphate to terminate polymerization catalyzed by purified HIV-1 reverse transcriptase (RT). […] The target concentration is that concentration where most mutant variants tested are suppressed by 90% or more. The concentration of 5 μM is the target plasma concentration as most, mutant variants tested were suppressed ≧90% in vitro.
as §1

[10] = Intracellular phosphorylation and triphosphate half-life in PBMCs

Compound: Nc1nc(=O)n([C@@H]2CS[C@H](CO)O2)cc1F [FTC, β-L-2′,3′-dideoxy-3′-thia-5-fluorocytidine]
Viral Load Decline (log) ([1]; 200 mg QD, duration of dosing 12): −1.7 log

Compound: Nc1nc(=O)n([C@H]2C=C[C@@H](CO)O2)cc1F [L-D4FC]
% Change in mitDNA ([2]; 1 μM): −15% | % Change in rRNA ([2]; 1 μM): 0% | % Change in Lactic Acid ([2]; 1 μM): +25% | % Change in mitDNA ([2]; 10 μM): −74.2% | % Change in rRNA ([2]; 10 μM): −75.5% | % Change in Lactic Acid ([2]; 10 μM): +147% | Viral Load Decline (log) ([1]; 50 mg QD, duration of dosing 21, add-on study in experienced patients, mean of 7 of 18 patients): −1.69 log

Compound: Nc1nc(=O)n(C2CSC(CO)O2)cc1F (centres unmarked) [Racivir, reference compound]
EC90 [3]: 0.17 µM | Viral Load Decline (log) [4]: −2.02 to −2.43 log

Compound: Nc1ccn([C@H]2CO[C@@H](CO)S2)c(=O)n1 [SPD 754]
Viral Load Decline (log) ([1]; 1200 mg QD, duration of dosing 10): −1.62 log

Compound: C[C@H](Cn1cnc2c(N)ncnc21)OCP(=O)(O)O [TFV]
Viral Load Decline (log) ([1]; 300 mg QD, duration of dosing 28): −1.57 log

Compound: Nc1ccn([C@H]2C[C@H](O)[C@@H](COP(=O)(O)OP(=O)(O)OP(=O)(O)O)O2)c(=O)n1 [dC-TP]
Km ([5]; Km for dC-TP (substrate), read-out: Km WT): 7 µM | Km ([6]; Km for dC-TP (substrate)): 9 µM

Compound: Nc1ccn([C@H]2CC[C@@H](CO)O2)c(=O)n1 [ddC, 2′,3′-dideoxycytidine]
% Change in mitDNA ([2]; 1 μM): −99.7% | % Change in rRNA ([2]; 1 μM): −65.4% | % Change in Lactic Acid ([2]; 1 μM): +390% | % Change in mitDNA ([2]; 10 μM): −99.7% | % Change in rRNA ([2]; 10 μM): −73.6% | % Change in Lactic Acid ([2]; 10 μM): +492%

IC50 [7]: 0.25 µM | IC50 [8]: 0.07 µM
Compound: Nc1ccn([C@H]2CC[C@@H](COP(=O)(O)OP(=O)(O)OP(=O)(O)O)O2)c(=O)n1 [ddC-TP]

Compound: Nc1nc(=O)n([C@H]2C=C[C@@H](COP(=O)(O)OP(=O)(O)OP(=O)(O)O)O2)cc1F [β-D-D4FC-TP]
IC50 ([9]; pure polymerase, tritiated dCTP incorporation, read-out: IC50): 0.14 µM | IC50 ([9]; read-out: IC50, wild type purified RT): 0.067 ± 0.04 µM | IC50 [7]: 1.2 µM | IC50 [8]: 0.74 µM | Ki ([5]; read-out: Ki WT): 0.1 µM | Intracellular half life [10]: 13 to 17 h | intracellular half-life [10]: 13 to 17 h | extracellular concentration at which intracellular conversion to β-D-D4FC-TP plateaus ([10]; PHA-stimulated PBMCs): ~10 µM | accumulation, % of parent ([10]; in 8-10 hours): ~10% | Ki ([6]; read-out: Ki M184V): 0.3 µM
